Blank lines part the entries; values can stand above or below the compound they belong to.
Test system: 616215-338-R-J1-PDC tumor spheroids, viability
Assay: Anticancer human tumor 616215-338-R-J1-PDC patient-derived colon adenocarcinoma cell line growth inhibition [GQUAD]
Conditions: spheroids with HUVEC and MSC; for IC50: curve of first compound; for viability, T/C: stronger effect = lower value
In short: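 Multi-cell-type spheroids of tumor cells with HUVEC and mesenchymal stem cells, treated with drug combinations. Concentrations descend in half-log steps from near clinical Cmax, or from 10 microM where Cmax is unknown; viability read-out.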

[1] = second compound 0.0316 µM, first compound 0.0316 µM
[2] = second compound 0.0316 µM, first compound 0.1 µM
[3] = second compound 0.0316 µM, first compound 0.316 µM
[4] = second compound 0.0316 µM, first compound 1 µM
[5] = second compound 0.0316 µM, first compound 3.16 µM
[6] = second compound 0.0316 µM, first compound 10 µM
[7] = second compound 0.1 µM, first compound 0.0316 µM
[8] = second compound 0.1 µM, first compound 0.1 µM
[9] = second compound 0.1 µM, first compound 0.316 µM
[10] = second compound 0.1 µM, first compound 1 µM
[11] = second compound 0.1 µM, first compound 3.16 µM
[12] = second compound 0.1 µM, first compound 10 µM
[13] = second compound 0.316 µM, first compound 0.0316 µM
[14] = second compound 0.316 µM, first compound 0.1 µM
[15] = second compound 0.316 µM, first compound 0.316 µM
[16] = second compound 0.316 µM, first compound 1 µM
[17] = second compound 0.316 µM, first compound 3.16 µM
[18] = second compound 0.316 µM, first compound 10 µM
[19] = second compound 1 µM, first compound 0.0316 µM
[20] = second compound 1 µM, first compound 0.1 µM
[21] = second compound 1 µM, first compound 0.316 µM
[22] = second compound 1 µM, first compound 1 µM
[23] = second compound 1 µM, first compound 3.16 µM
[24] = second compound 1 µM, first compound 10 µM
[25] = second compound 3.16 µM, first compound 0.0316 µM
[26] = second compound 3.16 µM, first compound 0.1 µM
[27] = second compound 3.16 µM, first compound 0.316 µM
[28] = second compound 3.16 µM, first compound 1 µM
[29] = second compound 3.16 µM, first compound 3.16 µM
[30] = second compound 3.16 µM, first compound 10 µM
[31] = second compound 10 µM, first compound 0.0316 µM
[32] = second compound 10 µM, first compound 0.1 µM
[33] = second compound 10 µM, first compound 0.316 µM
[34] = second compound 10 µM, first compound 1 µM
[35] = second compound 10 µM, first compound 3.16 µM
[36] = second compound 10 µM, first compound 10 µM
[37] = second compound 0.0316 µM, first compound 0.000999 µM
[38] = second compound 0.0316 µM, first compound 0.00316 µM
[39] = second compound 0.0316 µM, first compound 0.00999 µM
[40] = second compound 0.0316 µM, first compound 0.0999 µM
[41] = second compound 0.1 µM, first compound 0.000999 µM
[42] = second compound 0.1 µM, first compound 0.00316 µM
[43] = second compound 0.1 µM, first compound 0.00999 µM
[44] = second compound 0.1 µM, first compound 0.0999 µM
[45] = second compound 0.316 µM, first compound 0.000999 µM
[46] = second compound 0.316 µM, first compound 0.00316 µM
[47] = second compound 0.316 µM, first compound 0.00999 µM
[48] = second compound 0.316 µM, first compound 0.0999 µM
[49] = second compound 1 µM, first compound 0.000999 µM
[50] = second compound 1 µM, first compound 0.00316 µM
[51] = second compound 1 µM, first compound 0.00999 µM
[52] = second compound 1 µM, first compound 0.0999 µM
[53] = second compound 3.16 µM, first compound 0.000999 µM
[54] = second compound 3.16 µM, first compound 0.00316 µM
[55] = second compound 3.16 µM, first compound 0.00999 µM
[56] = second compound 3.16 µM, first compound 0.0999 µM
[57] = second compound 10 µM, first compound 0.000999 µM
[58] = second compound 10 µM, first compound 0.00316 µM
[59] = second compound 10 µM, first compound 0.00999 µM
[60] = second compound 10 µM, first compound 0.0999 µM
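Further: spheroids exposed to agents for 7 days before readout.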
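Wherever viability, T/C is given: percent viability relative to DMSO vehicle control wells taken as 100%.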

Compound: CC1COCCN1c1cc(C2(S(C)(=N)=O)CC2)nc(-c2ccnc3[nH]ccc23)n1 (stereo not given) + Cc1[nH]c2ccc(F)cc2c1-c1nc2c3cccnc3c3ncccc3c2[nH]1
IC50 (second compound 0.0316 µM): 9280 nM
IC50 (second compound 0.1 µM): 6380 nM
IC50 (second compound 0.316 µM): 7030 nM
IC50 (second compound 1 µM): 7040 nM
IC50 (second compound 3.16 µM): 6050 nM
IC50 (second compound 10 µM): 5790 nM
viability, T/C [1]: 109%
viability, T/C [2]: 108%
viability, T/C [3]: 104%
viability, T/C [4]: 96.1%
viability, T/C [5]: 81.5%
viability, T/C [6]: 47.2%
viability, T/C [7]: 105%
viability, T/C [8]: 116%
viability, T/C [9]: 104%
viability, T/C [10]: 110%
viability, T/C [11]: 69.2%
viability, T/C [12]: 37.6%
viability, T/C [13]: 92.6%
viability, T/C [14]: 110%
viability, T/C [15]: 99.8%
viability, T/C [16]: 101%
viability, T/C [17]: 69.7%
viability, T/C [18]: 41.3%
viability, T/C [19]: 90.7%
viability, T/C [20]: 110%
viability, T/C [21]: 102%
viability, T/C [22]: 95.5%
viability, T/C [23]: 81.5%
viability, T/C [24]: 36.1%
viability, T/C [25]: 107%
viability, T/C [26]: 93.6%
viability, T/C [27]: 92.2%
viability, T/C [28]: 98.7%
viability, T/C [29]: 69.5%
viability, T/C [30]: 35%
viability, T/C [31]: 119%
viability, T/C [32]: 105%
viability, T/C [33]: 93.3%
viability, T/C [34]: 95.1%
viability, T/C [35]: 68.4%
viability, T/C [36]: 32.5%

Compound: Cc1[nH]c2ccccc2c1CCNCc1ccc(/C=C/C(=O)NO)cc1 + Cc1[nH]c2ccc(F)cc2c1-c1nc2c3cccnc3c3ncccc3c2[nH]1
IC50 (second compound 0.0316 µM): 145 nM
IC50 (second compound 0.1 µM): 178 nM
IC50 (second compound 0.316 µM): 162 nM
IC50 (second compound 1 µM): 131 nM
IC50 (second compound 3.16 µM): 132 nM
IC50 (second compound 10 µM): 125 nM
viability, T/C [37]: 110%
viability, T/C [38]: 98.6%
viability, T/C [39]: 95.8%
viability, T/C [1]: 108%
viability, T/C [40]: 67.6%
viability, T/C [3]: 13.2%
viability, T/C [41]: 93.6%
viability, T/C [42]: 96.6%
viability, T/C [43]: 94.4%
viability, T/C [7]: 97%
viability, T/C [44]: 89.6%
viability, T/C [9]: 10.9%
viability, T/C [45]: 99.5%
viability, T/C [46]: 109%
viability, T/C [47]: 104%
viability, T/C [13]: 97.9%
viability, T/C [48]: 79.8%
viability, T/C [15]: 9.21%
viability, T/C [49]: 102%
viability, T/C [50]: 98.5%
viability, T/C [51]: 93.1%
viability, T/C [19]: 101%
viability, T/C [52]: 62%
viability, T/C [21]: 10.9%
viability, T/C [53]: 98%
viability, T/C [54]: 92.6%
viability, T/C [55]: 100%
viability, T/C [25]: 94%
viability, T/C [56]: 62.7%
viability, T/C [27]: 10.8%
viability, T/C [57]: 99.7%
viability, T/C [58]: 99.5%
viability, T/C [59]: 103%
viability, T/C [31]: 95.1%
viability, T/C [60]: 59.9%
viability, T/C [33]: 8.56%

IC50 (second compound 0.0316 µM): 501 nM
IC50 (second compound 0.1 µM): 147 nM
IC50 (second compound 0.316 µM): < 31.6 nM
IC50 (second compound 1 µM): < 31.6 nM
IC50 (second compound 3.16 µM): < 31.6 nM
IC50 (second compound 10 µM): < 31.6 nM
Compound: O=C(NO)c1cnc(N2CCN(S(=O)(=O)c3ccc4ccccc4c3)CC2)nc1 + Cc1cnc(CNC(=O)c2c(=O)c3ccc(N4CCCN(C)CC4)nc3n3c2sc2ccccc23)cn1
viability, T/C [1]: 101%
viability, T/C [2]: 96.1%
viability, T/C [3]: 79.9%
viability, T/C [4]: 5.15%
viability, T/C [5]: 0.03%
viability, T/C [6]: 0.07%
viability, T/C [7]: 54.1%
viability, T/C [8]: 66.6%
viability, T/C [9]: 29.4%
viability, T/C [10]: 0.37%
viability, T/C [11]: 0.03%
viability, T/C [12]: 0.07%
viability, T/C [13]: 37.2%
viability, T/C [14]: 41.2%
viability, T/C [15]: 28.5%
viability, T/C [16]: 0.06%
viability, T/C [17]: 0.02%
viability, T/C [18]: 0.06%
viability, T/C [19]: 24.7%
viability, T/C [20]: 24.8%
viability, T/C [21]: 35.1%
viability, T/C [22]: 0.04%
viability, T/C [23]: 0.03%
viability, T/C [24]: 0.08%
viability, T/C [25]: 21.9%
viability, T/C [26]: 34.8%
viability, T/C [27]: 0.18%
viability, T/C [28]: 0.07%
viability, T/C [29]: 0.07%
viability, T/C [30]: 0.09%
viability, T/C [31]: 12.2%
viability, T/C [32]: 16%
viability, T/C [33]: 0.15%
viability, T/C [34]: 0.14%
viability, T/C [35]: 0.16%
viability, T/C [36]: 0.17%

Compound: Cn1ncnc1[C@H]1c2n[nH]c(=O)c3cc(F)cc(c23)N[C@@H]1c1ccc(F)cc1 + CN(C)c1ccc(Nc2c3ccc(NC(=O)CCN4CCCC4)cc3nc3cc(NC(=O)CCN4CCCC4)ccc23)cc1
IC50 (second compound 0.0316 µM): > 316 nM
IC50 (second compound 0.1 µM): > 316 nM
IC50 (second compound 0.316 µM): > 316 nM
IC50 (second compound 1 µM): > 316 nM
IC50 (second compound 3.16 µM): > 316 nM
IC50 (second compound 10 µM): > 316 nM
viability, T/C [37]: 103%
viability, T/C [38]: 101%
viability, T/C [39]: 99.7%
viability, T/C [1]: 104%
viability, T/C [40]: 112%
viability, T/C [3]: 97%
viability, T/C [41]: 99.5%
viability, T/C [42]: 113%
viability, T/C [43]: 104%
viability, T/C [7]: 99.8%
viability, T/C [44]: 95%
viability, T/C [9]: 96.6%
viability, T/C [45]: 98.2%
viability, T/C [46]: 92.2%
viability, T/C [47]: 108%
viability, T/C [13]: 111%
viability, T/C [48]: 102%
viability, T/C [15]: 106%
viability, T/C [49]: 100%
viability, T/C [50]: 91.9%
viability, T/C [51]: 104%
viability, T/C [19]: 103%
viability, T/C [52]: 98.1%
viability, T/C [21]: 87.7%
viability, T/C [53]: 103%
viability, T/C [54]: 92.2%
viability, T/C [55]: 94.2%
viability, T/C [25]: 101%
viability, T/C [56]: 90.5%
viability, T/C [27]: 95.4%
viability, T/C [57]: 94.4%
viability, T/C [58]: 77.8%
viability, T/C [59]: 91.9%
viability, T/C [31]: 89%
viability, T/C [60]: 90.9%
viability, T/C [33]: 86.7%

IC50 (second compound 0.0316 µM): 381 nM
IC50 (second compound 0.1 µM): 410 nM
IC50 (second compound 0.316 µM): < 31.6 nM
IC50 (second compound 1 µM): < 31.6 nM
IC50 (second compound 3.16 µM): < 31.6 nM
IC50 (second compound 10 µM): < 31.6 nM
Compound: COc1cccc2c1C(=O)c1c(O)c3c(c(O)c1C2=O)CC(O)(C(=O)CO)CC3OC1CC(N)C(O)C(C)O1 (stereo not given) + Cc1cnc(CNC(=O)c2c(=O)c3ccc(N4CCCN(C)CC4)nc3n3c2sc2ccccc23)cn1
viability, T/C [1]: 102%
viability, T/C [2]: 54.7%
viability, T/C [3]: 50.2%
viability, T/C [4]: 40.5%
viability, T/C [5]: 20.2%
viability, T/C [6]: 1.32%
viability, T/C [7]: 56%
viability, T/C [8]: 67.4%
viability, T/C [9]: 49.7%
viability, T/C [10]: 39.2%
viability, T/C [11]: 19.4%
viability, T/C [12]: 1.25%
viability, T/C [13]: 38.2%
viability, T/C [14]: 39%
viability, T/C [15]: 32%
viability, T/C [16]: 27.7%
viability, T/C [17]: 19.9%
viability, T/C [18]: 0.1%
viability, T/C [19]: 28.1%
viability, T/C [20]: 37.7%
viability, T/C [21]: 34.5%
viability, T/C [22]: 26%
viability, T/C [23]: 12.6%
viability, T/C [24]: 0.1%
viability, T/C [25]: 29.8%
viability, T/C [26]: 28.1%
viability, T/C [27]: 35.1%
viability, T/C [28]: 16.4%
viability, T/C [29]: 15.3%
viability, T/C [30]: 0.16%
viability, T/C [31]: 28%
viability, T/C [32]: 20.8%
viability, T/C [33]: 28.3%
viability, T/C [34]: 23.1%
viability, T/C [35]: 3.24%
viability, T/C [36]: 0.25%
